In patent US20170087174A1, “COMBINATION THERAPY REGIMEN FOR TREATMENT OF HCV” (JANSSEN PHARMACEUTICALS, INC., priority 2015, published 2017):
Read-outs that look alike come from different tables or passages of the source.

How the values were obtained:
[1] = test system: CYP (cytochrome P450 enzymes); test: CYP inhibition in vitro
[2] = PK of single agents vs fixed dose combinations (FDC), single oral dose in healthy volunteers; assay type: in vivo, human; settings: for Cmax / AUC(0-t) / AUC(0-inf) / Tmax: human, plasma, oral; for Cmax: read-out: Cmax (mean ± SD); for AUC(0-t): read-out: AUClast (mean ± SD); for AUC(0-inf): read-out: AUC∞ (mean ± SD); for Tmax: read-out: tmax (median [range])
Protocol: SMV (100 mg), ODV (50 mg), and Compound (III) (800 mg) were administered as three different formulations or together as single doses in vivo to healthy volunteers. The arms of the study included: • Arm 1 (Reference Arm): Single oral doses of single agents, one SMV 100-mg capsule, one ODV 50-mg tablet as granule layered solid dispersion with copovidone and poloxamers, and two Compound (III) 400-mg tablets, administered together. • Arm 2: Single oral dose of fixed dose combination (FDC02): SMV 100 mg+ODV 50 mg as a spray dried solid dispersion with HPMC-AS L in a ratio ODV/HPMC-AS L 1/1 w/w+Compound (III) 800 mg • Arm 3: Single oral dose of fixed dose combination (FDC04): SMV 100 mg+ODV 50 mg as a spray dried solid dispersion with HPMC-AS L in a ratio ODV/HPMC-AS L 1/3 w/w+Compound (III) 800 mg • Arm 4: Single oral dose of fixed dose combination (FDC01): SMV 100 mg+ODV 50 mg as a spray dried solid dispersion with copovidone and poloxamers+Compound (III) 800 mg
PK parameters, including Cmax, tmax, AUClast, and AUC∞ were measured for Compound (III), ODV, SMV, and metabolites Compound A-I and Compound A-3 for each Arm of the study. Arms that included fixed dose combinations (FDC) (Arm 2, Arm 3, and Arm 4) were then compared to a single oral dose (Arm 1, the reference Arm). Table 9, Table 10, Table 11, Table 12 and Table 13 display relevant PK parameters and FIG. 9, FIG. 10, FIG. 11, FIG. 12, and FIG. 13 depict the plasma concentration over time of SMV, ODV, Compound A-1, and Compound A-3 for each Arm of the study.

[3] = Phase 2a open-label combination study: pharmacokinetics (exposure); assay type: in vivo, human; settings: in vivo
Protocol: A randomized, Phase 2a, open-label study was carried out to evaluate the safety, pharmacokinetics and efficacy of the combination of Compound (III), Odalasvir and Simeprevir in Genotype 1 treatment-naïve subjects with chronic hepatitis C. Other treatment-naïve subjects included Genotype 2, 3, 4, 5 and 6.
The aim of the study was to determine the efficacy, pharmacokinetics (PK), and safety of Compound (III)+Odalasvir±SMV in HCV-infected subjects.
This was an open-label study evaluating various dosing regimens of Compound (III)+Odalasvir±SMV for 6-8 weeks in treatment-naïve HCV-infected subjects with varying clinical characteristics (e.g., GT 1 or 3, presence/absence of compensated Child Pugh A cirrhosis). Efficacy, PK and safety evaluations were conducted during and through 24 weeks post dosing. Up to 15 cohorts were enrolled; data was generated from cohorts that have completed dosing.

[4] = Arm 1 (reference): single agents together
[5] = Arm 2 (FDC02) vs reference (Arm 1)
[6] = Arm 3 (FDC04) vs reference (Arm 1)
[7] = Arm 4 (FDC01) vs reference (Arm 1)
[8] = Arm 1 (reference): single agents together, SMV 100-mg capsule, ODV 50-mg tablet, two Compound (III) 400-mg tablets
[9] = Arm 2: FDC02, SMV 100 mg + ODV 50 mg (ODV/HPMC-AS L 1/1 w/w) + Compound (III) 800 mg
[10] = Arm 3: FDC04, SMV 100 mg + ODV 50 mg (ODV/HPMC-AS L 1/3 w/w) + Compound (III) 800 mg
[11] = Arm 4: FDC01, SMV 100 mg + ODV 50 mg (copovidone and poloxamers) + Compound (III) 800 mg

IC50 [1] [µM] | t1/2term (mean ± SD) [2, 4] [h] | Least Square Means Ratio, AUClast [2, 5] [%] | Least Square Means Ratio, Cmax [2, 5] [%] | t1/2term (mean ± SD) ([2]; Arm 2: FDC02) [h] | Least Square Means Ratio, AUClast [2, 6] [%] | Least Square Means Ratio, Cmax [2, 6] [%] | t1/2term (mean ± SD) ([2]; Arm 3: FDC04) [h] | Least Square Means Ratio, AUClast [2, 7] [%] | Least Square Means Ratio, Cmax [2, 7] [%] | t1/2term (mean ± SD) ([2]; Arm 4: FDC01) [h] | Cmax [2, 8] [ng/mL] | AUC(0-t) [2, 4] [ng·h/mL] | AUC(0-inf) [2, 4] [ng·h/mL] | Tmax [2, 4] [h] | Cmax [2, 9] [ng/mL] | AUC(0-t) ([2]; Arm 2: FDC02) [ng·h/mL] | AUC(0-inf) ([2]; Arm 2: FDC02) [ng·h/mL] | Tmax ([2]; Arm 2: FDC02) [h] | Cmax [2, 10] [ng/mL] | SMILES | further results
> 40 | 19.6 ± 2.7 | 118.54 | 133.00 | 20.5 ± 3.3 | 121.29 | 119.83 | 20.2 ± 3.5 | 120.45 | 121.37 | 18.3 ± 3.5 | 498 ± 154 | 3910 ± 1150 | 4530 ± 1800 | 4 | 681 ± 268 | 4680 ± 1550 | 4370 ± 1340 | 4 | 598 ± 192 | C[C@]1(O)[C@H](n2ccc(=O)[nH]c2=O)O[C@](F)(CO)[C@H]1O [Compound A-1] | AUC(0-t) ([2]; Arm 3: FDC04): 4710 ± 1310 ng·h/mL; AUC(0-inf) ([2]; Arm 3: FDC04): 5380 ± 1560 ng·h/mL; Tmax ([2]; Arm 3: FDC04): 4 h; Cmax [2, 11]: 607 ± 208 ng/mL; AUC(0-t) ([2]; Arm 4: FDC01): 4690 ± 1420 ng·h/mL; AUC(0-inf) ([2]; Arm 4: FDC01): 4560 ± 787 ng·h/mL; Tmax ([2]; Arm 4: FDC01): 4 h; increase of exposure with dose [3]: less than proportionally
> 48 | 2.6 ± 1.4 | 103.24 | 102.81 | 2.3 ± 0.6 | 115.78 | 119.82 | 2.9 ± 1.5 | 116.82 | 123.77 | 2.5 ± 0.7 | 163 ± 61.8 | 800 ± 307 | 823 ± 311 | 3 | 163 ± 45.2 | 790 ± 157 | 817 ± 133 | 3 | 189 ± 49.7 | C[C@H](NP(=O)(O)OC[C@@]1(F)O[C@@H](n2ccc(=O)[nH]c2=O)[C@](C)(O)[C@@H]1O)C(=O)O [Compound A-3] | Least Square Means Ratio, AUC∞ [2, 5]: 104.40%; Least Square Means Ratio, AUC∞ [2, 6]: 114.92%; Least Square Means Ratio, AUC∞ [2, 7]: 115.62%; AUC(0-t) ([2]; Arm 3: FDC04): 895 ± 223 ng·h/mL; AUC(0-inf) ([2]; Arm 3: FDC04): 914 ± 226 ng·h/mL; Tmax ([2]; Arm 3: FDC04): 3.5 h; Cmax [2, 11]: 197 ± 62.1 ng/mL; AUC(0-t) ([2]; Arm 4: FDC01): 909 ± 244 ng·h/mL; AUC(0-inf) ([2]; Arm 4: FDC01): 926 ± 245 ng·h/mL; Tmax ([2]; Arm 4: FDC01): 4 h
